Results reported in paper PMC9343080, “Distribution- and Metabolism-Based Drug Discovery: A Potassium-Competitive Acid Blocker as a Proof of Concept” (Research, 2022).
Like-named read-outs stand apart in the source and are kept apart here.

What was measured:
[1] = test system: 2-DG-stimulated gastric acid secretion; experiment: In vivo inhibition of 2DG-stimulated acid secretion in anesthetized rats; design: species or system rat
Procedure: (§1) 60 SPF SD rats weighing 180-220 g were randomly divided into […]: sham, model, SH-337 (2 mg/kg and 4 mg/kg), vonoprazan (2 mg/kg), males and females are equally divided. Fasting for 24 hours, model and sham groups were treated with deionized water. Drugs and vehicle were given through intragastric administration to rats before anesthesia. 1 h after administration, pylorus was ligated. 5 min later, histamine 2HCl (30 mg/10 mL/kg) was injected subcutaneously. At 3 h after histamine administration, the rats were killed by CO2 asphyxiation. The gastric contents were collected in a 10 mL centrifuge tube after removing their stomachs. Centrifuge at 3000 g for 10 min, and then, determine the total acid output during a 3 h period by 0.1 M NaOH [52, 53]. %Inhibition = (average of modelacid–drugacid)/average of modelacid × 100%.
The 2DG-stimulated acid secretion in anesthetized rats was measured as described as for histamine-stimulated acid secretion, with the exception that 5 min after pylorus ligation, 2-DG (200 mg/10 mL/kg) was injected subcutaneously.

[2] = Tissue distribution of SH-337 in rats (LC-MS/MS); assay type: in vivo, rat; conditions: for concentration at 15 min / concentration at 1 h / concentration at 2 h / concentration at 4 h / concentration at 24 h: po, 4 mg/kg
Procedure: 15 SPF male SD rats were randomly divided into 5 groups, three per group. Fasting was for 4 hours. Plasma, heart, liver, and stomach were obtained 0.25, 1, 2, 4, and 24 hours after oral administration of SH-337 (0.4 mg/mL in water) at a dose of 4 mg/kg. At designated time points, rats were anesthetized with ether, and the blood samples were collected via the abdominal aorta. The blood was immediately cooled under ice-chilled conditions and centrifuged at approximately 1500 × g at 4°C for 10 minutes to obtain the plasma. For plasma: 20 μL Std samples in duplicate, QC samples in duplicate, and rat plasma samples were mixed with 60 μL ACN containing IS (200 ng/mL of tolbutamide, 50 ng/mL of propranolol, and 500 ng/mL of Dic) in EP tubes. After the mixture was vortexed for 1 min and then centrifuged for 10 min (13000 rpm, 4°C), transfer 50 μL supernatant to a 96-well plate with 150 μL pure water, shake for 10 min, and finally analyze by LC-MS/MS. For heart and liver: tissue samples were added with 3-folds (w/v) saline in terms of the weight of samples and then homogenated. 20 μL Std samples in duplicate, QC samples in duplicate, and rat heart and liver samples were mixed with 60 μL ACN containing IS (200 ng/mL of tolbutamide, 50 ng/mL of propranolol, and 500 ng/mL of Dic) in EP tubes. After the mixture was vortexed for 1 min and then centrifuged for 10 min (13000 rpm, 4°C), transfer 50 μL supernatant to a 96-well plate with 150 μL pure water, shake for 10 min, and finally analyze by LC-MS/MS. For stomach: tissue samples were added with 3-folds (w/v) saline in terms of the weight of samples and then homogenated. 20 μL Std samples in duplicate, QC samples in duplicate, and rat stomach samples were mixed with 60 μL ACN containing IS (200 ng/mL of tolbutamide, 50 ng/mL of propranolol, and 500 ng/mL of Dic) in EP tubes. After the mixture was vortexed for 1 min and then centrifuged for 10 min (13000 rpm, 4°C), transfer 50 μL supernatant to a 96-well plate with 150 μL pure water, shake for 10 min, and finally analyze by LC-MS/MS.

[3] = test system: histamine-stimulated gastric acid secretion; experiment: In vivo inhibition of histamine-stimulated acid secretion in anesthetized rats; design: species or system rat; conditions: for Total acid output, histamine-stimulated model / Inhibition (%), histamine-stimulated model: rats
Procedure: as §1

[4] = pKa measurement (pH-metric method); assay type: physicochemical
Procedure: Procedure for pKa and log D7.4 measurements. The pKa was determined using pH-metric Method from DMSO Stock Solution. Procedure for Log D determinations: 15 µL of stock solutions of test compounds and control compound was placed in order into their proper 96-well rack. 500 µL of PBS saturated 1-octanol was added into each vial of the cap-less Log D plate followed by the addition of 500 µL of 1-octanol saturated PBS (pH 7.4). One stir stick was added to each vial and a molded PTFE/Silicone plug was used to seal each vial. Then the Log D plate was transferred to the Eppendorf Thermomixer Comfort plate shaker and shaken at 25°C at 1,100 RPM for 1 hour. After completion of 1 hour, plugs were removed and the stir sticks were removed using a big magnet. The samples were then centrifuged at 25°C at 20,000 g for 20 minutes to separate the phases, and pipette and syringe were used to remove the upper (1-octanol) and lower (buffer) phases to the empty tubes, respectively. Aliquots of 5 µL were taken from upper phases followed by addition of 495 µL of a mixture of H2O and acetonitrile (1:1 in v/v). Vortex for 1 minute, and then aliquots of 50 µL were taken from the diluent followed by addition of 450 µL of a mixture of H2O and acetonitrile (1:1 in v/v). And aliquots of 50 µL were taken from lower phases followed by addition of 450 µL of a mixture of H2O and acetonitrile (1:1 in v/v). 200 μL of diluent was transferred to a new 96-well plate for LC-MS/MS analysis. The dilution factor was changed according to the Log D value and the LC-MS signal response. The concentrations of test compound and control compound in 1-octanol/buffer solution were evaluated by LC-MS/MS. The Log D values of the test compounds and control compound were calculated as follows: […]

[5] = rats, single oral 4 mg/kg SH-337
[6] = stomach-liver distribution ratio, rats, oral 4 mg/kg

CNCc1cc(-c2ccc(OCC3CC3)cc2F)n(S(=O)(=O)c2cccnc2)c1.Cl.Cl [SH-337, 1-(5-(4-(cyclopropylmethoxy)-2-fluorophenyl)-1-(pyridin-3-ylsulfonyl)-1H-pyrrol-3-yl)-N-methylmethanamine dihydrochloride]
Inhibition (%), 2-DG-stimulated model ([1]; i.g. 2 mg/kg): 78% | Total acid output, 2-DG-stimulated model ([1]; i.g. 2 mg/kg): 0.65 ± 0.31^∗∗ 10^−4 mol | Inhibition (%), 2-DG-stimulated model ([1]; i.g. 4 mg/kg): 91% | Total acid output, 2-DG-stimulated model ([1]; i.g. 4 mg/kg): 0.29 ± 0.29^∗∗ 10^−4 mol | C Stomach/CLiver (stomach-liver distribution ratio) ([2]; AUC, rats, i.g. 4 mg/kg SH-337): 7.1 | concentration at 15 min ([2]; male, SD, rat, liver, rats, single oral 4 mg/kg SH-337, read-out: Concentration, Liver, 15 min): 5240 ng/mL | concentration at 1 h ([2]; male, SD, rat, liver, rats, single oral 4 mg/kg SH-337, read-out: Concentration, Liver, 1 h): 846 ng/mL | concentration at 2 h ([2]; male, SD, rat, liver, rats, single oral 4 mg/kg SH-337, read-out: Concentration, Liver, 2 h): 262 ng/mL | concentration at 4 h ([2]; male, SD, rat, liver, rats, single oral 4 mg/kg SH-337, read-out: Concentration, Liver, 4 h): 145 ng/mL | concentration at 24 h ([2]; male, SD, rat, liver, rats, single oral 4 mg/kg SH-337, read-out: Concentration, Liver, 24 h): 1.3 ng/mL | concentration at 1 h ([2]; male, SD, rat, plasma, rats, 1 h after oral administration of 4.0 mg/kg (Table 2), read-out: Drug concentration, Plasma): 7.1 ng/mL | concentration at 15 min ([2]; male, SD, rat, plasma, rats, single oral 4 mg/kg SH-337, read-out: Concentration, Plasma, 15 min): 9.4 ng/mL | concentration at 1 h ([2]; male, SD, rat, plasma, rats, single oral 4 mg/kg SH-337, read-out: Concentration, Plasma, 1 h): 15.5 ng/mL | concentration at 2 h ([2]; male, SD, rat, plasma, rats, single oral 4 mg/kg SH-337, read-out: Concentration, Plasma, 2 h): 5.1 ng/mL | concentration at 4 h ([2]; male, SD, rat, plasma, rats, single oral 4 mg/kg SH-337, read-out: Concentration, Plasma, 4 h): 6.7 ng/mL | AUC(0-t) ([2]; male, SD, rat, plasma, rats, single oral 4 mg/kg SH-337, read-out: AUC-last, Plasma): 32.6 ng·h/mL | Kp ([2]; male, SD, rat, stomach / plasma, oral, AUC, rats, i.g. 4 mg/kg SH-337, read-out: C Stomach/CPlasma (stomach-plasma distribution ratio)): 1360 | concentration at 1 h ([2]; male, SD, rat, stomach, rats, 1 h after oral administration of 4.0 mg/kg (Table 2), read-out: Drug concentration, Stomach): 6690 ng/mL | concentration at 15 min ([2]; male, SD, rat, stomach, rats, single oral 4 mg/kg SH-337, read-out: Concentration, Stomach, 15 min): 9820 ng/mL | concentration at 1 h ([2]; male, SD, rat, stomach, rats, single oral 4 mg/kg SH-337, read-out: Concentration, Stomach, 1 h): 3340 ng/mL | concentration at 2 h ([2]; male, SD, rat, stomach, rats, single oral 4 mg/kg SH-337, read-out: Concentration, Stomach, 2 h): 3030 ng/mL | concentration at 4 h ([2]; male, SD, rat, stomach, rats, single oral 4 mg/kg SH-337, read-out: Concentration, Stomach, 4 h): 2810 ng/mL | concentration at 24 h ([2]; male, SD, rat, stomach, rats, single oral 4 mg/kg SH-337, read-out: Concentration, Stomach, 24 h): 136 ng/mL | Kp at 1 h ([2]; male, SD, rat, ratio of stomach to plasma distribution 1 h after oral administration of 4.0 mg/kg, read-out: C Stomach/CPlasma): 943 | AUC0–24, Liver ([2]; rats, i.g. 4 mg/kg SH-337): 6155.6 ng equiv. h/mL or g | AUC0–24, Plasma ([2]; rats, i.g. 4 mg/kg SH-337): 32.6 ng equiv. h/mL or g | AUC0–24, Stomach ([2]; rats, i.g. 4 mg/kg SH-337): 44240.4 ng equiv. h/mL or g | retention in the stomach ([2]; rats, oral 4 mg/kg): more than 24 h | AUC-last, Liver [2, 5]: 6155.6 ng·h/g | AUC-last, Stomach [2, 5]: 44240.4 ng·h/g | Concentration, Plasma, 24 h ([2]; rats, single oral 4 mg/kg SH-337, BLQ: below limit of quantification): BLQ | CStomach/CLiver, 15 min [2, 6]: 1.9 | CStomach/CLiver, 1 h [2, 6]: 3.95 | CStomach/CLiver, 2 h [2, 6]: 11.6 | CStomach/CLiver, 4 h [2, 6]: 19.4 | CStomach/CLiver, 24 h [2, 6]: 104.9 | In vivo efficacy (% inhibition) ([3]; histamine-induced acid secretion in rats, 2 mg/kg, i.g. (Table 2)): 83% | Total acid output, histamine-stimulated model ([3]; i.g. 2 mg/kg): 0.31 ± 0.39^∗∗ 10^−4 mol | Inhibition (%), histamine-stimulated model ([3]; i.g. 2 mg/kg (Table 6)): 80% | Inhibition (%), histamine-stimulated model ([3]; i.g. 4 mg/kg): 93% | Total acid output, histamine-stimulated model ([3]; i.g. 4 mg/kg): 0.14 ± 0.48^∗∗ 10^−4 mol | pKa [4]: 9.03 | pKa ([4]; read-out: pKa): 9
